Test results as given in ChEMBL document CHEMBL4513134, “CO-ADD screening of University of Queensland (Australia) compounds” (2021).
Values after ≈ are worked out from the molar mass of the structure shown.

What was measured:
Klebsiella pneumoniae = conditions: ATCC 700603, Concentration 32.0 ug.mL-1
Description: Antibacterial activity against Klebsiella pneumoniae MDR ATCC 70063 (CO-ADD:GN_003); MIC in CAMBH media using NBS plates, by OD(600)

Escherichia coli = test: Antibacterial activity against Escherichia coli ATCC 25922 (CO-ADD:GN_001); MIC in CAMBH media using NBS plates, by OD(600); conditions: Concentration 32.0 ug.mL-1
Acinetobacter baumannii = test: Antibacterial activity against Acinetobacter baumannii ATCC 19606 (CO-ADD:GN_034); MIC in CAMBH media using NBS plates, by OD600; conditions: Concentration 32.0 ug.mL-1
Pseudomonas aeruginosa = conditions: ATCC 27853, Concentration 32.0 ug.mL-1
Description: Antibacterial activity against Pseudomonas aeruginosa ATCC 27853 (CO-ADD:GN_042); MIC in CAMBH media using NBS plates, by OD(600)

Staphylococcus aureus [1] = test: Antibacterial activity against Staphylococcus aureus MRSA ATCC 43300 (CO-ADD:GP_020); MIC in CAMBH media, using NBS plates, by OD(600); conditions: Concentration 32.0 ug.mL-1
HEK293 = test: cells; type: functional, Homo sapiens, ATCC CRL1573; conditions: ASSAY_TEST Inhibition of Cell Viability; detection method Resazurin; Fluorescence (ex560/em590); MEDIA DMEM with 10% FBS; plate type 384well; TC; CORNING #3712; time 18 hr
Staphylococcus aureus [2] = test: microbe, parasite or virus in culture; conditions: ATCC 43300, 18 h, ASSAY_TEST Inhibition of Bacterial Growth, detection method Absorption (OD600), MEDIA CAMHB, plate type 384well, NBS, CORNING #3640

SMILES: O=C(NC1CC1)c1ncc([N+](=O)[O-])[nH]1
- inhibition (Klebsiella pneumoniae): Average; N=2
- inhibition (Escherichia coli): Average; N=2
- inhibition (Acinetobacter baumannii): Average; N=2
- inhibition (Pseudomonas aeruginosa): Average; N=2
- inhibition (Staphylococcus aureus [1]): Average; N=2

SMILES: CC(=O)OCCn1cc([N+](=O)[O-])nc1C(N)=O
- inhibition (Klebsiella pneumoniae): Average; N=2
- inhibition (Escherichia coli): Average; N=2
- inhibition (Acinetobacter baumannii): Average; N=2
- inhibition (Pseudomonas aeruginosa): Average; N=2
- inhibition (Staphylococcus aureus [1]): Average; N=2

SMILES: CCOC(=O)c1nc([N+](=O)[O-])c[nH]1
- CC50 (HEK293): >100

SMILES: O=C(NCc1cccc(OC(F)(F)F)c1)c1ncc([N+](=O)[O-])[nH]1
- MIC (Staphylococcus aureus [2]): 16 µg/mL (≈ 48.5 µM)

SMILES: NC(=O)c1ncc([N+](=O)[O-])[nH]1
- inhibition (Klebsiella pneumoniae): Average; N=2
- inhibition (Escherichia coli): Average; N=2
- inhibition (Acinetobacter baumannii): Average; N=2
- inhibition (Pseudomonas aeruginosa): Average; N=2
- inhibition (Staphylococcus aureus [1]): Average; N=2

SMILES: CNC(=O)c1nc([N+](=O)[O-])cn1Cc1ccc(OC(F)(F)F)cc1
- CC50 (HEK293): >100

SMILES: CC(=O)OCCn1c(C)cn2cc([N+](=O)[O-])nc2c1=O
- CC50 (HEK293): >100

SMILES: C[C@H]1COC2(CCN(c3nc(=O)c4cc(C(F)(F)F)cc([N+](=O)[O-])c4s3)CC2)O1 [BTZ-043]
- CC50 (HEK293): >100

SMILES: O=C(NCc1ccccc1)c1nc([N+](=O)[O-])c[nH]1
- inhibition (Klebsiella pneumoniae): Average; N=2
- inhibition (Escherichia coli): Average; N=2
- inhibition (Acinetobacter baumannii): Average; N=2
- inhibition (Pseudomonas aeruginosa): Average; N=2
- inhibition (Staphylococcus aureus [1]): Average; N=2

SMILES: Cc1cn2cc([N+](=O)[O-])nc2c(=O)[nH]1
- CC50 (HEK293): >100

SMILES: CN(CCO)C(=O)c1ncc([N+](=O)[O-])[nH]1
- inhibition (Klebsiella pneumoniae): Average; N=2
- inhibition (Escherichia coli): Average; N=2
- inhibition (Acinetobacter baumannii): Average; N=2
- inhibition (Pseudomonas aeruginosa): Average; N=2
- inhibition (Staphylococcus aureus [1]): Average; N=2

SMILES: O=[N+]([O-])c1cn2ccnc(OCCc3ccc(OC(F)(F)F)cc3)c2n1
- CC50 (HEK293): >100

SMILES: NC(=O)c1nc([N+](=O)[O-])cn1Cc1ccccn1
- inhibition (Klebsiella pneumoniae): Average; N=2
- inhibition (Escherichia coli): Average; N=2
- inhibition (Acinetobacter baumannii): Average; N=2
- inhibition (Pseudomonas aeruginosa): Average; N=2
- inhibition (Staphylococcus aureus [1]): Average; N=2

SMILES: CS(=O)(=O)c1ccc(CNC(=O)c2ncc([N+](=O)[O-])[nH]2)cc1
- inhibition (Klebsiella pneumoniae): Average; N=2
- inhibition (Escherichia coli): Average; N=2
- inhibition (Acinetobacter baumannii): Average; N=2
- inhibition (Pseudomonas aeruginosa): Average; N=2
- inhibition (Staphylococcus aureus [1]): Average; N=2

SMILES: Cc1nc(OCc2ccc(OC(F)(F)F)cc2)c2nc([N+](=O)[O-])cn2c1C
- CC50 (HEK293): >100

SMILES: O=c1[nH]c(-c2ccc(OC(F)(F)F)cc2)cn2cc([N+](=O)[O-])nc12
- CC50 (HEK293): >100

SMILES: O=C(NC1CCCCC1)c1ncc([N+](=O)[O-])[nH]1
- inhibition (Klebsiella pneumoniae): Average; N=2
- inhibition (Escherichia coli): Average; N=2
- inhibition (Acinetobacter baumannii): Average; N=2
- inhibition (Pseudomonas aeruginosa): Average; N=2
- inhibition (Staphylococcus aureus [1]): Average; N=2

SMILES: Cc1c(C)n2cc([N+](=O)[O-])nc2c(=O)n1Cc1ccc(OC(F)(F)F)cc1
- CC50 (HEK293): >100

SMILES: NC(=O)c1nc([N+](=O)[O-])cn1Cc1ccc(C(F)(F)F)cc1
- inhibition (Klebsiella pneumoniae): Average; N=2
- inhibition (Escherichia coli): Average; N=2
- inhibition (Acinetobacter baumannii): Average; N=2
- inhibition (Pseudomonas aeruginosa): Average; N=2
- inhibition (Staphylococcus aureus [1]): Average; N=2

SMILES: CC(=O)OCCn1c(-c2ccccc2)cn2cc([N+](=O)[O-])nc2c1=O
- inhibition (Klebsiella pneumoniae): Average; N=2
- inhibition (Escherichia coli): Average; N=2
- inhibition (Acinetobacter baumannii): Average; N=2
- inhibition (Pseudomonas aeruginosa): Average; N=2
- inhibition (Staphylococcus aureus [1]): Average; N=2

SMILES: CN(CCOC(=O)c1ncc([N+](=O)[O-])[nH]1)C(=O)c1ncc([N+](=O)[O-])[nH]1
- inhibition (Klebsiella pneumoniae): Average; N=2
- inhibition (Escherichia coli): Average; N=2
- inhibition (Acinetobacter baumannii): Average; N=2
- inhibition (Pseudomonas aeruginosa): Average; N=2
- inhibition (Staphylococcus aureus [1]): Average; N=2

SMILES: NC(=O)c1nc([N+](=O)[O-])cn1Cc1cccc(OC(F)(F)F)c1
- inhibition (Klebsiella pneumoniae): Average; N=2
- inhibition (Escherichia coli): Average; N=2
- inhibition (Acinetobacter baumannii): Average; N=2
- inhibition (Pseudomonas aeruginosa): Average; N=2
- inhibition (Staphylococcus aureus [1]): Average; N=2

SMILES: COc1nc(C)cn2cc([N+](=O)[O-])nc12
- CC50 (HEK293): >50

SMILES: O=C(c1ncc([N+](=O)[O-])[nH]1)N1CCCC1
- inhibition (Klebsiella pneumoniae): Average; N=2
- inhibition (Escherichia coli): Average; N=2
- inhibition (Acinetobacter baumannii): Average; N=2
- inhibition (Pseudomonas aeruginosa): Average; N=2
- inhibition (Staphylococcus aureus [1]): Average; N=2

SMILES: Cc1ccc(CCNC(=O)c2ncc([N+](=O)[O-])[nH]2)cc1
- MIC (Staphylococcus aureus [2]): 32 µg/mL (≈ 117 µM)

SMILES: CN(Cc1ccc(OC(F)F)cc1)C(=O)c1ncc([N+](=O)[O-])[nH]1
- MIC (Staphylococcus aureus [2]): 16 µg/mL (≈ 49 µM)

SMILES: Cc1cn2cc([N+](=O)[O-])nc2c(OCCO)n1
- CC50 (HEK293): >100

SMILES: Cc1[nH]c(=O)c2nc([N+](=O)[O-])cn2c1C
- CC50 (HEK293): >100

SMILES: O=C(NCc1ccc(OC(F)(F)F)cc1)c1ncc([N+](=O)[O-])[nH]1
- inhibition (Klebsiella pneumoniae): Average; N=2
- inhibition (Escherichia coli): Average; N=2
- inhibition (Acinetobacter baumannii): Average; N=2
- inhibition (Pseudomonas aeruginosa): Average; N=2
- inhibition (Staphylococcus aureus [1]): Average; N=2

SMILES: CN(C)C(=O)c1ncc([N+](=O)[O-])[nH]1
- inhibition (Klebsiella pneumoniae): Average; N=2
- inhibition (Escherichia coli): Average; N=2
- inhibition (Acinetobacter baumannii): Average; N=2
- inhibition (Pseudomonas aeruginosa): Average; N=2
- inhibition (Staphylococcus aureus [1]): Average; N=2

SMILES: O=C(c1ncc([N+](=O)[O-])[nH]1)N1CCOCC1
- inhibition (Klebsiella pneumoniae): Average; N=2
- inhibition (Escherichia coli): Average; N=2
- inhibition (Acinetobacter baumannii): Average; N=2
- inhibition (Pseudomonas aeruginosa): Average; N=2
- inhibition (Staphylococcus aureus [1]): Average; N=2

SMILES: O=C(NCc1ccccn1)c1ncc([N+](=O)[O-])[nH]1
- inhibition (Klebsiella pneumoniae): Average; N=2
- inhibition (Escherichia coli): Average; N=2
- inhibition (Acinetobacter baumannii): Average; N=2
- inhibition (Pseudomonas aeruginosa): Average; N=2
- inhibition (Staphylococcus aureus [1]): Average; N=2

SMILES: CC(=O)OCCOc1nc(C)cn2cc([N+](=O)[O-])nc12
- CC50 (HEK293): >100

SMILES: NC(=O)c1nc([N+](=O)[O-])cn1CC1CCCCC1
- inhibition (Klebsiella pneumoniae): Average; N=2
- inhibition (Escherichia coli): Average; N=2
- inhibition (Acinetobacter baumannii): Average; N=2
- inhibition (Pseudomonas aeruginosa): Average; N=2
- inhibition (Staphylococcus aureus [1]): Average; N=2

SMILES: CN(C)C(=O)c1nc([N+](=O)[O-])cn1Cc1ccc(OC(F)(F)F)cc1
- CC50 (HEK293): >100

SMILES: Nc1c[nH]c(C(=O)NCc2ccc(F)cc2)n1
- inhibition (Klebsiella pneumoniae): Average; N=2
- inhibition (Escherichia coli): Average; N=2
- inhibition (Acinetobacter baumannii): Average; N=2
- inhibition (Pseudomonas aeruginosa): Average; N=2
- inhibition (Staphylococcus aureus [1]): Average; N=2

SMILES: CCOC(=O)c1nc([N+](=O)[O-])cn1Cc1ccc(OC(F)(F)F)cc1
- CC50 (HEK293): >100

SMILES: NNC(=O)c1nc([N+](=O)[O-])cn1Cc1ccc(OC(F)(F)F)cc1
- CC50 (HEK293): >100

SMILES: NC(=O)c1nc([N+](=O)[O-])cn1CCc1ccc(OC(F)(F)F)cc1
- inhibition (Klebsiella pneumoniae): Average; N=2
- inhibition (Escherichia coli): Average; N=2
- inhibition (Acinetobacter baumannii): Average; N=2
- inhibition (Pseudomonas aeruginosa): Average; N=2
- inhibition (Staphylococcus aureus [1]): Average; N=2

SMILES: CNC(=O)c1ncc([N+](=O)[O-])[nH]1
- inhibition (Klebsiella pneumoniae): Average; N=2
- inhibition (Escherichia coli): Average; N=2
- inhibition (Acinetobacter baumannii): Average; N=2
- inhibition (Pseudomonas aeruginosa): Average; N=2
- inhibition (Staphylococcus aureus [1]): Average; N=2

SMILES: O=C(NCCO)c1ncc([N+](=O)[O-])[nH]1
- inhibition (Klebsiella pneumoniae): Average; N=2
- inhibition (Escherichia coli): Average; N=2
- inhibition (Acinetobacter baumannii): Average; N=2
- inhibition (Pseudomonas aeruginosa): Average; N=2
- inhibition (Staphylococcus aureus [1]): Average; N=2

SMILES: NC(=O)c1nc([N+](=O)[O-])cn1Cc1ccc(F)cc1
- inhibition (Klebsiella pneumoniae): Average; N=2
- inhibition (Escherichia coli): Average; N=2
- inhibition (Acinetobacter baumannii): Average; N=2
- inhibition (Pseudomonas aeruginosa): Average; N=2
- inhibition (Staphylococcus aureus [1]): Average; N=2

SMILES: [N-]=[N+]=NCCOc1nc(-c2ccccc2)cn2cc([N+](=O)[O-])nc12
- inhibition (Klebsiella pneumoniae): Average; N=2
- inhibition (Escherichia coli): Average; N=2
- inhibition (Acinetobacter baumannii): Average; N=2
- inhibition (Pseudomonas aeruginosa): Average; N=2
- inhibition (Staphylococcus aureus [1]): Average; N=2

SMILES: NC(=O)c1nc([N+](=O)[O-])cn1CCO
- CC50 (HEK293): >100

SMILES: Cc1ccc(CNC(=O)c2nc([N+](=O)[O-])c[nH]2)cc1
- MIC (Staphylococcus aureus [2]): 32 µg/mL (≈ 123 µM)

SMILES: CC(NC(=O)c1ncc([N+](=O)[O-])[nH]1)c1ccc(F)cc1 (stereo unspecified)
- inhibition (Klebsiella pneumoniae): Average; N=2
- inhibition (Escherichia coli): Average; N=2
- inhibition (Acinetobacter baumannii): Average; N=2
- inhibition (Pseudomonas aeruginosa): Average; N=2
- inhibition (Staphylococcus aureus [1]): Average; N=2

SMILES: Cc1cn2cc([N+](=O)[O-])nc2c(=O)n1Cc1ccc(OC(F)(F)F)cc1
- CC50 (HEK293): >100

SMILES: Cc1cn2cc([N+](=O)[O-])nc2c(OCc2ccc(OC(F)(F)F)cc2)n1
- CC50 (HEK293): >100

SMILES: Cc1ccc(CCn2cc([N+](=O)[O-])nc2C(N)=O)cc1
- inhibition (Klebsiella pneumoniae): Average; N=2
- inhibition (Escherichia coli): Average; N=2
- inhibition (Acinetobacter baumannii): Average; N=2
- inhibition (Pseudomonas aeruginosa): Average; N=2
- inhibition (Staphylococcus aureus [1]): Average; N=2

SMILES: Cc1cn2cc([N+](=O)[O-])nc2c(=O)n1CCO
- CC50 (HEK293): >100

SMILES: O=C(NO)c1nc([N+](=O)[O-])cn1Cc1ccc(OC(F)(F)F)cc1
- CC50 (HEK293): 36

SMILES: O=C(O)C(F)(F)F.O=c1nc(N2CCN(CC3CCCCC3)CC2)sc2c([N+](=O)[O-])cc(C(F)(F)F)cc12
- CC50 (HEK293): >50
